Assays:
[1] = Suspension stability monitored by SGF/FaSSIF dissolution test; format: physicochemical
Procedure: The performance of each solid dispersion suspension was monitored at 4 and 24 hours after preparation using the SGF/FaSSIF dissolution test as the comparative metric.
The suspension stability dissolution profiles for the solid dispersion formulations held for 4 hours or 24 hours can be found in Tables 8 and 9, respectively. The dissolution tests were dosed at 2.0 mgA/mL in SGF and upon transfer into FaSSIF were reduced to 1.0 mgA/mL. It is expected that the solid dispersion suspensions can be held for up to 4 hours prior to dosing.

[2] = Non-sink gastric transfer dissolution test (SGF to FaSSIF); format: physicochemical
Procedure: The dissolution performance of the solid dispersions was tested in a non-sink dissolution test. […] During the test, samples were transferred from SGF [theoretical Cmax=2000 μgA/mL] to FaSSIF [theoretical Cmax=1000 μgA/mL].

[3] = Solubility in acetone/H2O combinations, equilibrated 48 hours; format: physicochemical; settings: 48 hours at room temperature
From the text: The second measurement was completed to further evaluate acetone/H2O combinations in 1% H2O increments.

786-O-Hif-Luc cells = assay: Luciferase Assay; format: cell-based; settings: luciferase activity after about 24 hours
Procedure: A pool of infected cells were then selected against 2 μg/mL of puromycin (P8833, Sigma) for 10 days followed by limited dilution to select single clones.
Each concentration was tested in triplicate. After about 24 hours, luciferase activity was determined using ONE-Glo Luciferase Assay Reagent (E6110, Promega) following the manufacturer's recommended procedure.

VEGF = VEGF ELISA Assay in 786-O cells; format: cell-based; settings: Homo sapiens, 786-0; VEGF concentration in 786-O cell culture medium
Procedure: Each concentration was plated in duplicate. About 20 hours later, medium was removed by suction and each well was supplied with 180 μL of growth medium. About 20 μl freshly-made 10× compound stocks were added to each well. […] The EC50 was calculated by GraphPad Prism using the dose-response-inhibition (four parameter) equation. The cell-seeded plate was then subjected to CellTiter-Glo luminescence cell viability assay (Promega) by adding 50 μL of Celltiter Glo reagent into each well and shaking the plate for 8 minutes at 550 rpm (Thermomixer R, Eppendorf) then the luminescence signal immediately read in a plate reader (3 second delay, 0.5 second/well integration time, Synergy 2 multi Detection Microplate reader).

[4] = Solubility and sink factor in dissolution media at pH 2 and 6.8; settings: for Sink Factor (10 mg) / Sink Factor (40 mg): 900 mL media
[5] = Solubility in acetone and acetone/H2O mixtures, 30 minutes; settings: room temperature
Procedure: The first measurement was conducted at room temperature over 30 minutes with mixing completed by spinning in centrifuge tubes.

[6] = Glass transition temperature (Tg) by mDSC; format: physicochemical; settings: neat compound, Example 1
Procedure: MDSC was performed using a TA Instruments Q2000 differential scanning calorimeter equipped with a TA instruments Refrigerated Cooling System 90. MDSC was used to measure glass transition temperature (Tg) and melting temperature (Tm), if present. The temperature range was adjusted from 0-250° C. with a heating rate of 1.5° C./min. The scanning mode was modulated where the modulation frequency was 60 seconds and modulation amplitude 1° C.
The effect of relative humidity on the Tg was examined for the solid dispersion. The solid dispersion was exposed to humidity levels of 33%, 50% or 75% for 24 hours. Following exposure, the samples were capped in hermetically sealed DSC pans for analysis. […] As shown, the Tg dropped to 71° C. and 51° C. when exposed to 33% and 75% RH, respectively. […] The solid dispersion was packaged in packaging that maintains RH values <33% for long-term storage.

[7] = Example 6, lipid vehicle capsules
[8] = pH 2.0 (0.01N HCl) w/0.5% Tween 80
[9] = pH 2.0 (0.01N HCl) w/1% Tween 80
[10] = pH 6.8 (50 mM NaH2PO4) w/0.5% CTAB
[11] = pH 6.8 (50 mM NaH2PO4) w/0.5% SLS
[12] = pH 6.8 (50 mM NaH2PO4) w/0.5% Tween 80
[13] = pH 6.8 (50 mM NaH2PO4) w/1% CTAB
[14] = pH 6.8 (50 mM NaH2PO4) w/1% SLS
[15] = pH 6.8 (50 mM NaH2PO4) w/1% Tween 80

In the case of `CS(=O)(=O)c1ccc(Oc2cc(F)cc(C#N)c2)c2c1[C@H](O)[C@H](F)[C@@H]2F` [compound of Formula (I), 3-(((1S,2S,3R)-2,3-difluoro-1-hydroxy-7-(methylsulfonyl)-2,3-dihydro-1H-inden-4-yl)oxy)-5-fluorobenzonitrile], the “Cmax GB” value ([1]; 10 mgA/mL suspension in 1 wt. % 1:1 methyl-cellulose:Tween 80 held 4 hours) is reported as 18.3 μgA/mL, the “Cmax GB” value ([1]; 10 mgA/mL suspension in 1 wt. % 1:1 methyl-cellulose:Tween 80 held 24 hours) is reported as 35.8 μgA/mL and the “AUC Enhancement” value ([1]; suspension held 4 hours) is reported as 1.0. The “AUC FaSSIF” value ([1]; suspension held 4 hours) was 2600 μgA/mL*min, the “Cmax FaSSIF” value ([1]; suspension held 4 hours) was 15.5 μgA/mL and the “AUC Enhancement” value ([1]; suspension held 24 hours) was 1.0. The “AUC FaSSIF” value ([1]; suspension held 24 hours) was 5600 μgA/mL*min, the “Cmax FaSSIF” value ([1]; suspension held 24 hours) was 33.0 μgA/mL and the “AUC Enhancement” value ([2]; Example 2, AUC solid dispersion/AUC crystalline compound of Formula (I)) was 1. For the same compound, the “Cmax GB” value ([2]; Example 2, SGF, 30 minutes) was 12 μgA/mL, the “Cmax FaSSIF” value ([2]; Example 2, after transfer to FaSSIF) was 16 μgA/mL and the “AUC FaSSIF” value ([2]; Example 2, post gastric transfer) was 2600 μgA/mL*min. For the same compound, the “Cmax GB” value ([2]; Example 6, capsules, 5 wt. % compound in lipid vehicle) was 14 μgA/mL, the “AUC FaSSIF” value [2, 7] was 3021 μgA/mL*min and the “Cmax FaSSIF” value [2, 7] was 19 μgA/mL. The “AUC Enhancement” value ([2]; Example 6, versus bulk crystalline drug) was 1.0, the solubility ([3]; 95/5% Acetone/H2O) was 6.6 wt. % and the solubility ([3]; 96/4% Acetone/H2O) was 6.3 wt. %. The solubility ([3]; 97/3% Acetone/H2O) was 6.7 wt. %, the solubility ([3]; 98/2% Acetone/H2O) was 6.6 wt. % and the solubility ([3]; 99/1% Acetone/H2O) was 6.0 wt. %. For the same compound, the solubility ([3]; 100% Acetone) was 6.0 wt. %, the EC50 (786-O-Hif-Luc cells) was less than 50 nM and the EC50 (VEGF) was less than 50 nM. For the same compound, the solubility ([4]; pH 2) was 100 µg/mL, the “Sink Factor (10 mg)” value ([4]; pH 2.0 (0.01N HCl) w/0.5% CTAB) was 5.4 and the “Sink Factor (40 mg)” value ([4]; pH 2.0 (0.01N HCl) w/0.5% CTAB) was 1.4. The “Sink Factor (10 mg)” value ([4]; pH 2.0 (0.01N HCl) w/0.5% SLS) was 3.6, the “Sink Factor (40 mg)” value ([4]; pH 2.0 (0.01N HCl) w/0.5% SLS) was 0.9 and the “Sink Factor (10 mg)” value [4, 8] was 1.8. For the same compound, the “Sink Factor (40 mg)” value [4, 8] was 0.5, the “Sink Factor (10 mg)” value ([4]; pH 2.0 (0.01N HCl) w/1% CTAB) was 9 and the “Sink Factor (40 mg)” value ([4]; pH 2.0 (0.01N HCl) w/1% CTAB) was 2.3. The “Sink Factor (10 mg)” value ([4]; pH 2.0 (0.01N HCl) w/1% SLS) was 6.3, the “Sink Factor (40 mg)” value ([4]; pH 2.0 (0.01N HCl) w/1% SLS) was 1.6 and the “Sink Factor (10 mg)” value [4, 9] was 1.8. For the same compound, the “Sink Factor (40 mg)” value [4, 9] was 0.5, the “Sink Factor (10 mg)” value ([4]; pH 2.0 (0.01N HCl)) was 0.9 and the “Sink Factor (40 mg)” value ([4]; pH 2.0 (0.01N HCl)) was 0.2. It also gave a solubility ([4]; pH 2, aqueous with cosolvent or surfactant or cyclodextrin, thermodynamic from solid, Solubility) of 60 µg/mL, a solubility ([4]; pH 2, aqueous with cosolvent or surfactant or cyclodextrin, thermodynamic from solid, Solubility, pH 2.0 (0.01N HCl) w/0.5% SLS) of 40 µg/mL and a solubility ([4]; pH 2, aqueous with cosolvent or surfactant or cyclodextrin, thermodynamic from solid, Solubility, pH 2.0 (0.01N HCl) w/0.5% Tween 80) of 20 µg/mL. For the same compound, the solubility ([4]; pH 2, aqueous with cosolvent or surfactant or cyclodextrin, thermodynamic from solid, Solubility, pH 2.0 (0.01N HCl) w/1% SLS) was 70 µg/mL, the solubility ([4]; pH 2, aqueous with cosolvent or surfactant or cyclodextrin, thermodynamic from solid, Solubility, pH 2.0 (0.01N HCl) w/1% Tween 80) was 20 µg/mL and the solubility ([4]; pH 2, simulated gastric fluid, thermodynamic from solid, Solubility, pH 2.0 (0.01N HCl)) was 10 µg/mL. For the same compound, the “Sink Factor (10 mg)” value [4, 10] was 6.3, the “Sink Factor (40 mg)” value [4, 10] was 1.6 and the “Sink Factor (10 mg)” value [4, 11] was 3.6. The “Sink Factor (40 mg)” value [4, 11] was 0.9, the “Sink Factor (10 mg)” value [4, 12] was 1.8 and the “Sink Factor (40 mg)” value [4, 12] was 0.5. For the same compound, the “Sink Factor (10 mg)” value [4, 13] was 9.9, the “Sink Factor (40 mg)” value [4, 13] was 2.5 and the “Sink Factor (10 mg)” value [4, 14] was 6.3. For the same compound, the “Sink Factor (40 mg)” value [4, 14] was 1.6, the “Sink Factor (10 mg)” value [4, 15] was 1.8 and the “Sink Factor (40 mg)” value [4, 15] was 0.5. For the same compound, the “Sink Factor (10 mg)” value ([4]; pH 6.8 (50 mM NaH2PO4)) was 0.9, the “Sink Factor (40 mg)” value ([4]; pH 6.8 (50 mM NaH2PO4)) was 0.2 and the solubility ([4]; pH 6.8, aqueous buffer, thermodynamic from solid, Solubility, pH 6.8 (50 mM NaH2PO4)) was 10 µg/mL. It also gave a solubility ([4]; pH 6.8, aqueous with cosolvent or surfactant or cyclodextrin, thermodynamic from solid, Solubility, pH 6.8 (50 mM NaH2PO4) w/0.5% CTAB) of 70 µg/mL, a solubility ([4]; pH 6.8, aqueous with cosolvent or surfactant or cyclodextrin, thermodynamic from solid, Solubility, pH 6.8 (50 mM NaH2PO4) w/0.5% SLS) of 40 µg/mL and a solubility ([4]; pH 6.8, aqueous with cosolvent or surfactant or cyclodextrin, thermodynamic from solid, Solubility, pH 6.8 (50 mM NaH2PO4) w/0.5% Tween 80) of 20 µg/mL. For the same compound, the solubility ([4]; pH 6.8, aqueous with cosolvent or surfactant or cyclodextrin, thermodynamic from solid, Solubility, pH 6.8 (50 mM NaH2PO4) w/1% CTAB) was 110 µg/mL, the solubility ([4]; pH 6.8, aqueous with cosolvent or surfactant or cyclodextrin, thermodynamic from solid, Solubility, pH 6.8 (50 mM NaH2PO4) w/1% SLS) was 70 µg/mL and the solubility ([4]; pH 6.8, aqueous with cosolvent or surfactant or cyclodextrin, thermodynamic from solid, Solubility, pH 6.8 (50 mM NaH2PO4) w/1% Tween 80) was 20 µg/mL. It also gave a solubility ([5]; 87.5/12.5% Acetone/H2O) of 5.8 wt. %, a solubility ([5]; 90/10% Acetone/H2O) of 7.1 wt. % and a solubility ([5]; 92.5/7.5% Acetone/H2O) of 6.7 wt. %. For the same compound, the solubility ([5]; 95/5% Acetone/H2O) was 7.5 wt. %, the solubility ([5]; 97.5/2.5% Acetone/H2O) was 7.3 wt. % and the solubility ([5]; 100% Acetone) was 6.2 wt. %. The “glass transition temperature (Tg)” value [6] was 79.9 °C.
